The values that follow come from ChEMBL document CHEMBL4385640, “Synthesis, SAR study, and biological evaluation of novel 2,3-dihydro-1H-imidazo[1,2-a]benzimidazole derivatives as phosphodiesterase 10A inhibitors” (Bioorg Med Chem, 2019).

Molecules are shown by their SMILES. In brackets after ≈: the same amount, converted by molar mass. Activity calls are given as the source filed them. The calls are words filed in the database; no cut-off is given here.

In series [1] the target is cAMP and cAMP-inhibited cGMP 3',5'-cyclic phosphodiesterase 10A (Homo sapiens, UniProt Q9Y233). Nature of the series: Inhibition of human PDE10A using cAMP as substrate preincubated for 30 mins followed by substrate addition and measured after 60 mins by HTRF detection assay.
A further series relates to LLC-PK1. Nature of the series: Ratio of efflux ratio of LLC-PK1 cells expressing human MDR1 at 1 uM to efflux ratio of wild type LLC-PK1 cells at 1 uM. The settings on record: pig, llc-pk1, 1 µM. Format: ADME, cell-based, Sus scrofa.
The nature of series [2]: Apparent permeability in wild type pig LLC-PK1 cells at 1 uM incubated for 3 hrs by […] LC-MS/MS analysis. The class given is ADME, cell-based, Sus scrofa.
The nature of series [3]: Toxicity in ICR mouse assessed as induction of catalepsy up to 100 mg/kg, po treated for 60 mins and measured up to 120 secs by bar test. The class given is organism-based. The settings on record: in vivo.
Series [4] relates to Mus musculus. Nature of the series: Effect on mean number of arm entries in ddY mouse at 0.03 to 0.3 mg/kg, po pretreated 40 mins before MK-801 dosing and measured after 20 mins by Y-maze test. The settings on record: in vivo. The class given is organism-based.
The subject of series [5] is Mus musculus. Nature of the series: Antipsychotic activity in ICR mouse assessed as inhibition of Phencyclidine-induced hyperlocomotion pretreated orally followed by Phencyclidine injection and measured after 60 mins. Format: functional, organism-based.
In the next series the target is CYP2D6 (Homo sapiens, UniProt P10635). Nature of the series: Inhibition of CYP2D6 in human liver microsomes assessed as enzyme residual activity incubated for 30 mins by LC-MS/MS analysis relative to control. Format: ADME. The settings on record: read-out: Activity. Background: Liver microsomes are a subcellular fraction often used to study metabolism.
A further series addresses CYP2C19 (Homo sapiens, UniProt P33261). Nature of the series: Inhibition of CYP2C19 in human liver microsomes assessed as enzyme residual activity incubated for 30 mins by LC-MS/MS analysis relative to control. Format: ADME. The settings on record: read-out: Activity.
Series [6] is described as follows: Intrinsic clearance in mouse liver microsomes by LC-MS/MS analysis. The class given is ADME, Microsome. The settings on record: read-out: CLH.
A further series concerns the target CYP2C9 (Homo sapiens, UniProt P11712). In words: Inhibition of CYP2C9 in human liver microsomes assessed as enzyme residual activity incubated for 30 mins by LC-MS/MS analysis relative to control. The class given is ADME. Particulars: read-out: Activity.
For a further series, the target named is T1, CYP2C8 (Homo sapiens, UniProt P10632).
T1 sequence (P10632 whole entry): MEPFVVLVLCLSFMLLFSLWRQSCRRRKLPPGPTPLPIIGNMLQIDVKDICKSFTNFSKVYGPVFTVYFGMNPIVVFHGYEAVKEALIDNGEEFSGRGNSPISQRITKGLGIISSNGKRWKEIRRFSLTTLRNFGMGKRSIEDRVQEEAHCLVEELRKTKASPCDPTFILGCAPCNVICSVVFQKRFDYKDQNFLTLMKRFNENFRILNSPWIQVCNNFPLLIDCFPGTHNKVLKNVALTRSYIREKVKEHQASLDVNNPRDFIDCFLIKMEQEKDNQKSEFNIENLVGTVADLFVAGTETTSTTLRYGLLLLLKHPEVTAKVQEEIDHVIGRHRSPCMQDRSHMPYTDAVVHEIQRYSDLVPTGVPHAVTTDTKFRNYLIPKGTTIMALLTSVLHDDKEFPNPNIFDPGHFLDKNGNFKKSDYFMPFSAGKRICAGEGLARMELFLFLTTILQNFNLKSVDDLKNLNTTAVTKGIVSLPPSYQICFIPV
Nature of the series: Inhibition of CYP2C8 in human liver microsomes assessed as enzyme residual activity incubated for 30 mins by LC-MS/MS analysis relative to control. Format: ADME. The settings on record: read-out: Activity.

In a further series the target is CYP3A4 (Homo sapiens, UniProt P08684). Nature of the series: Inhibition of CYP3A4 in human liver microsomes assessed as enzyme residual activity incubated for 30 mins by LC-MS/MS analysis relative to control. The class given is ADME. The settings on record: read-out: Activity.
Another series addresses T2, CYP1A2 (Homo sapiens, UniProt P05177).
T2 sequence (P05177 whole entry): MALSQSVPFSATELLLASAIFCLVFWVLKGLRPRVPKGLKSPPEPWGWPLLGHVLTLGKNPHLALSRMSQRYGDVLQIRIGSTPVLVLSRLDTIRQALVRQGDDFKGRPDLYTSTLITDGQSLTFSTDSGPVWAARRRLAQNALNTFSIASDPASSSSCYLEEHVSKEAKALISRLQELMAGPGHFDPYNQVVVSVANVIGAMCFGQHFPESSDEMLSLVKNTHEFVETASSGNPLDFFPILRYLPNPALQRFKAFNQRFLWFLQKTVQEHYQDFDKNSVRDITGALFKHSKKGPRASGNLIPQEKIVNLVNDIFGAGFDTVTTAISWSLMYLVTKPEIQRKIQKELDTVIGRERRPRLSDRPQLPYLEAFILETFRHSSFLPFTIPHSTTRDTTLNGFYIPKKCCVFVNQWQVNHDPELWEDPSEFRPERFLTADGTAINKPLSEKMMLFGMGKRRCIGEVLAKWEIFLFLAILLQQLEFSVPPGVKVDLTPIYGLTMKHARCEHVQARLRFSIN
Nature of the series: Inhibition of CYP1A2 in human liver microsomes assessed as enzyme residual activity incubated for 30 mins by LC-MS/MS analysis relative to control. The class given is ADME. The settings on record: read-out: Activity.

The nature of series [7]: Solubility of the compound in pH 6.8 JP2 buffer. Format: physicochemical.
Series [8] in a line: Intrinsic clearance in human liver microsomes by LC-MS/MS analysis. The class given is ADME, Microsome.
The nature of series [9]: Total brain to plasma partition coefficient, Kp in mouse at 0.1 mg/kg, po measured after 1 hr by LC-MS/MS analysis. Format: ADME, organism-based.
Series [10] is described as follows: Drug uptake in mouse brain at 0.1 mg/kg, po measured after 1 hr by LC-MS/MS analysis. Format: ADME, organism-based.
Series [11] relates to Mus musculus. Nature of the series: Effect on mean number of arm entries in ddY mouse at 1 mg/kg, po pretreated 40 mins before MK-801 dosing and measured after 20 mins by Y-maze test. Format: organism-based. Particulars: in vivo.
Series [12] in a line: Drug uptake in mouse plasma at 0.1 mg/kg, po measured after 1 hr by LC-MS/MS analysis. The class given is ADME, organism-based.
Series [13] can be described thus: Lipophilicity, logD of the compound at pH 7.4. Format: physicochemical. The settings on record: buffer.
Series [14] deals with Mus musculus. Nature of the series: Cognition enhancement activity in ddY mouse assessed as suppression of MK-801-induced working memory deficit by measuring decrease in spontaneous alternation behavior at 0.1 to 0.3 mg/kg, po pretreated 40 mins before MK-801 dosing and measured after 20 mins by Y-maze test. Format: functional, organism-based.

Sequence of cAMP and cAMP-inhibited cGMP 3',5'-cyclic phosphodiesterase 10A (Q9Y233 whole entry): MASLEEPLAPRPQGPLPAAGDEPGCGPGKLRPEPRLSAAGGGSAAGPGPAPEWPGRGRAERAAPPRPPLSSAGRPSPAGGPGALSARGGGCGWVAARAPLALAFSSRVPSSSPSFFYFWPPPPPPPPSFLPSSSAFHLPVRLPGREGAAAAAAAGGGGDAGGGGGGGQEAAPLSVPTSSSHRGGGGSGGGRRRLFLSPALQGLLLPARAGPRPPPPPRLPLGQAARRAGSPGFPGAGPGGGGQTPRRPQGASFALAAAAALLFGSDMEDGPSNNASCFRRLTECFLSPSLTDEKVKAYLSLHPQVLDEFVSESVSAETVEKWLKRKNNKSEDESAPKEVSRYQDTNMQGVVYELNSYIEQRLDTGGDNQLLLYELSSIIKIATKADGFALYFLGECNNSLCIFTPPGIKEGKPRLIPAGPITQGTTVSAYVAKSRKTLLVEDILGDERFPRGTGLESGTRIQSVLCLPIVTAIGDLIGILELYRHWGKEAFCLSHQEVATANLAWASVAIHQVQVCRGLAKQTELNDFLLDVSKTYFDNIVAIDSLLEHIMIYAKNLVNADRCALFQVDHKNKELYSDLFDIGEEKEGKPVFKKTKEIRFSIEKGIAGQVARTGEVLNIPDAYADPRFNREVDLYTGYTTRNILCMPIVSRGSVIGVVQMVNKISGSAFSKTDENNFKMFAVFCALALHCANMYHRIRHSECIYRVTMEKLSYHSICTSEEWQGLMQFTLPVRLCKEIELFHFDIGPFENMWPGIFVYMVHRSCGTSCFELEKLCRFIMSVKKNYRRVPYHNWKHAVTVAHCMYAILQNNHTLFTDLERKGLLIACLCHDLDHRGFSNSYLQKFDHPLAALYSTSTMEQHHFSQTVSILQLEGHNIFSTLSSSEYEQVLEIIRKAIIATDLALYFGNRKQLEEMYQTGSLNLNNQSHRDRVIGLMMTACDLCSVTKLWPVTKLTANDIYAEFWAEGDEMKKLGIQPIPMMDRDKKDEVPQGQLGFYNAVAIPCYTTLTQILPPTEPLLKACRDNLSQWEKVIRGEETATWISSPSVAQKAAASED
Sequence of CYP2D6 (P10635 whole entry): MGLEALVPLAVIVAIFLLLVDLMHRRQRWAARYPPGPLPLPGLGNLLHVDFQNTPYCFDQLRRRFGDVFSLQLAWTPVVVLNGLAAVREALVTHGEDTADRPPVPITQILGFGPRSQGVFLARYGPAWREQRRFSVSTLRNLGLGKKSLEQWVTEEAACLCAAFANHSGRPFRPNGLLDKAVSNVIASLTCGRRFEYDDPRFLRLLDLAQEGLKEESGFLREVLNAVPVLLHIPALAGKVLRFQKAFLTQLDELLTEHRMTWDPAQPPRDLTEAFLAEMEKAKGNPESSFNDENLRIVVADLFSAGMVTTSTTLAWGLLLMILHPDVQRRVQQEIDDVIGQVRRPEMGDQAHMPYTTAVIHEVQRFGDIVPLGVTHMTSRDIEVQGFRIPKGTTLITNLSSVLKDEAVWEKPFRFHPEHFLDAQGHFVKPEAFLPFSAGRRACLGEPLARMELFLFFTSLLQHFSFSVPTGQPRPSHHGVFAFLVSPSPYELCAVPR
Sequence of CYP3A4 (P08684 whole entry): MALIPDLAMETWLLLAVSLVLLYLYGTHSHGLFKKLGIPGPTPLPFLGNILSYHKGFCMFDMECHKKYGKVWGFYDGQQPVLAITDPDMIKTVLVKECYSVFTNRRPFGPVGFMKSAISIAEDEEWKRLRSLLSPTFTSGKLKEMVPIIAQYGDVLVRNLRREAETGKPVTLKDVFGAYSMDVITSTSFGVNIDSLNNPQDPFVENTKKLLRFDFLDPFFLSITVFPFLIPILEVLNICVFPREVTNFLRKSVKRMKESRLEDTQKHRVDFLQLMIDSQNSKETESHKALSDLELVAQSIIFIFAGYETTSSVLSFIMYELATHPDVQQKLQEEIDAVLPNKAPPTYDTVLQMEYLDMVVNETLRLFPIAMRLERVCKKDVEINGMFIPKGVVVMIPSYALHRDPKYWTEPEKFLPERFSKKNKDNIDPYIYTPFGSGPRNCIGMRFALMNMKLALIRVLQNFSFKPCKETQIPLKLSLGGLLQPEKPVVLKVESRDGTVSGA
Sequence of CYP2C9 (P11712 whole entry): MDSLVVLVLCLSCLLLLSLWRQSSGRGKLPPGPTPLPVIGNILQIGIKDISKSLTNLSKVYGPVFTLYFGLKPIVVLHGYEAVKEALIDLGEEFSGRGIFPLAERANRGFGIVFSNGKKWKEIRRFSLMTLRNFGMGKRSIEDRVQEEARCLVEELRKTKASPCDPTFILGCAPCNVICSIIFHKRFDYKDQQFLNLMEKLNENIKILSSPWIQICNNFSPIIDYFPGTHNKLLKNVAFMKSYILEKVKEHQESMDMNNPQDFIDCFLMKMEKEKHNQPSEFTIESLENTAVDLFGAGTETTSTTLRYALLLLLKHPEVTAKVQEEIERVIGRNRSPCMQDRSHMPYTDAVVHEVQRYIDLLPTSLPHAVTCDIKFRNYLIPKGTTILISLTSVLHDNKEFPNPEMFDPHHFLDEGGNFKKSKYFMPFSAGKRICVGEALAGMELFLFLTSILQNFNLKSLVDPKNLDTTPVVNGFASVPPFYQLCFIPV
Sequence of CYP2C19 (P33261 whole entry): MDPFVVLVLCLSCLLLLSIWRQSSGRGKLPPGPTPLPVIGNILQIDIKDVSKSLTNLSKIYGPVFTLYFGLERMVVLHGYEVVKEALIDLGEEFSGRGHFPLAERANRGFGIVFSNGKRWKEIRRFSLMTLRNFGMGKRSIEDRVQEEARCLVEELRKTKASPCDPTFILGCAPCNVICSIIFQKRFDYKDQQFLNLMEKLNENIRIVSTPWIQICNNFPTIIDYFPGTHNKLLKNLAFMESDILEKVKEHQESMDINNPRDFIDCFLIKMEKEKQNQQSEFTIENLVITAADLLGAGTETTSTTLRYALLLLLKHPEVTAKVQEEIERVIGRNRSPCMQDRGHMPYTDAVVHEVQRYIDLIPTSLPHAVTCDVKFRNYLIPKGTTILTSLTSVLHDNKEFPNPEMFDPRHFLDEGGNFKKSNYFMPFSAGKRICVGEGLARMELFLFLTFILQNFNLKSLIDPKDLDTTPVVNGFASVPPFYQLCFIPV

The term IC50 denotes the concentration at which inhibition is half-maximal. The low end stands for greater potency in that assay, the high end for weaker potency in that assay. Compound `Cc1cc(C)n2nc(CCNc3ncc4ccccc4n3)nc2n1` gave an IC50 in series [1] of 2080 nM.
`Cc1cc(C)n2nc(CC(=O)N3CCn4c3nc3ccccc34)nc2c1`: the Ratio with LLC-PK1 is recorded as 1.2. The compound further gave an IC50 in series [1] of 135 nM.
Regarding `Cc1cc(C)n2nc(CC(=O)N3CCn4c3nc3c(C)cccc34)nc2n1`, the IC50 in [1] is above 10000 nM.
The same measure, in the same setting: the result for `Cc1ccc2c(c1)nc1n2CCN1C(=O)Cc1nc2nc(C)cc(C)n2n1` reads 441 nM.
For the compound `Cc1cc(C)n2nc(CC(=O)N3c4nc5ccccc5n4CC3(C)C)nc2n1`, in the series on LLC-PK1, the Ratio turned out to be 2.1. In addition, the IC50 in series [1] was determined as 74 nM.
The compound `Cc1cc(C)n2nc(CC(=O)N3c4nc5ccccc5n4C[C@H]3c3ccccc3)nc2n1` came in with an IC50 in series [1] of 1920 nM. That is a single-digit micromolar value.
By Papp is commonly meant the rate of passage across a membrane or cell layer, normalised by area and donor concentration. Consider `Cc1cc(C)n2nc(CC(=O)N3CCn4c3nc3ccccc34)nc2n1`, for which the Ratio in the series with LLC-PK1 is given as 2.3. This compound gave an IC50 in series [1] of 52 nM. In addition, the Papp at 3 h, 1 µM in [2] is 16.8 ×10⁻⁶ cm/s.
In series [1], `Cc1ccc2nc3n(c2c1)CCN3C(=O)Cc1nc2nc(C)cc(C)n2n1` showed an IC50 of 416 nM.
In [1], `Cc1cc(C)n2nc(CCNc3nc4ccccc4n3C)nc2n1` yielded an IC50 of 88 nM. This IC50 is about 4.7-fold lower than that of the compound before.
A word on the solubility: it is the dissolved amount per volume that the medium holds. A low value points to little dissolved substance. Usually Kp stands for tissue or fluid exposure divided by exposure in the circulation. A word on the logD: it is lipophilicity at a set pH, counting ionised and neutral species. Higher therefore signals higher lipophilicity. `Cc1ncc(C)n2nc(CC(=O)N3c4nc5ccccc5n4C[C@@H]3C)nc12`: the Activity result was “Non-Toxic” in series [3], “Non-Toxic” in the series with Mus musculus [4], “Dose-dependent effect” with Mus musculus [5] and “Toxic” with Mus musculus [11]. Moreover, the Ratio with LLC-PK1 worked out at 1.2. Moreover, the activity at 0.5 h stood at 102% at CYP2D6; 90% on CYP2C19; 96% on CYP2C9; 99% at CYP2C8; 90% at CYP3A4; 98% at CYP1A2. Moreover, the CLint scaled in [6] turned out to be 175 mL/min/kg. For the same compound, in series [7], the solubility was determined as 100 µM (≈ 36.1 µg/mL). Also, the CLH result in [8] was “Stable”. In [1], half-maximal inhibition (IC50) required 8.4 nM. In series [9], this compound registered a Kp at 1 h of 2.3. The concentration at 1 h in series [10] (brain, read-out: Drug uptake) was determined as 2.2 ng/g; in [12] it was 0.91 ng/mL. The Papp at 3 h, 1 µM in series [2] was 27.5 ×10⁻⁶ cm/s. Also, in series [13], the logD came to 2. Further, in the series on Mus musculus [14], the Activity result was “Active”.
Consider `Cc1cc(C)n2nc(CCc3cc(O)n4nc5ccccc5c4n3)nc2n1`, for which the Ratio in the series with LLC-PK1 is recorded as 1.8. In series [1], this compound returned an IC50 of 2 nM. Besides, the Drug uptake result in series [10] (in vivo, 1 h) is listed as “Not Active”. Further, the Papp at 3 h, 1 µM in series [2] was 3.2 ×10⁻⁶ cm/s. This compound yielded a concentration at 1 h in series [12] of 0.59 ng/mL. For the same compound, in series [13], the logD stood at 0.3.
Consider `Cc1cc(C)n2nc(CC(=O)N3c4nc5ccccc5n4CC3C)nc2n1` (racemic), for which the Ratio in the series with LLC-PK1 was determined as 2.4. Also, the IC50 in series [1] amounted to 69 nM.
Compound `Cc1cc(C)n2nc(CCNc3nc4ccccc4[nH]3)nc2n1` yielded an IC50 in [1] of 105 nM.
Consider `Cc1ncc(C)n2nc(CC(=O)N3CCn4c3nc3ccccc34)nc12`, for which, in the series on LLC-PK1, the Ratio was determined as 1.3. Besides, the IC50 in series [1] is 44 nM.
As for `Cc1cc(C)n2nc(CCNc3cnc4ccccc4n3)nc2n1`, in [1], it took 1220 nM to reach half-maximal inhibition (IC50).
Take `Cc1cc(C)n2nc(CC(=O)N3CCn4c3nc3cccc(C)c34)nc2n1`: the IC50 in [1] is 279 nM.
For `Cc1cc(C)n2nc(CCc3cc(O)n4nc5ncccc5c4n3)nc2n1`, 2.9 nM corresponded to half-maximal inhibition in [1] (IC50).
For `Cc1cc(C)n2nc(CC(=O)N3c4nc5ccccc5n4C[C@@H]3C)nc2n1`, the Ratio in the series on LLC-PK1 was 2.4. This compound yielded an IC50 in series [1] of 28 nM.
In series [1], `Cc1cc(C)n2nc(CCNc3ccc4ccccc4n3)nc2n1` displayed an IC50 of 294 nM.
Consider `Cc1cc(C)n2nc(CC(=O)N3CC(C)n4c3nc3ccccc34)nc2n1` (stereo unspecified), for which, in series [1], the IC50 was 292 nM.
Same read-out and setting: in the case of `Cc1cc(C)n2nc(CC(=O)N3CCCn4c3nc3ccccc34)nc2n1` it was 1480 nM.
Same read-out and setting: the result for `Cc1cc(C)n2nc(CCc3ccn4nc5ccccc5c4n3)nc2n1` reads 78 nM.
Regarding `Cc1cc(C)n2cc(CC(=O)N3CCn4c3nc3ccccc34)nc2n1`, in the series on LLC-PK1, the Ratio was 1. Further, the IC50 in series [1] stood at 275 nM.
For `Cc1cc(C)n2nc(CC(=O)N3c4nc5ccccc5n4C[C@@H]3c3ccccc3)nc2n1`, in the series with LLC-PK1, the Ratio was determined as 3.8. In series [1], this compound returned an IC50 of 75 nM.
For the compound `Cc1cc(C)n2nc(CCN3CCn4c3nc3ccccc34)nc2n1`, in the series with LLC-PK1, the Ratio was 3.6. The midpoint of inhibition in series [1], the IC50, lay at 138 nM. Besides, the Papp at 3 h, 1 µM in series [2] worked out at 19.2 ×10⁻⁶ cm/s.
